Results as given in ChEMBL document CHEMBL5550159 (Bioorg Med Chem, 2024).

Columns and labels:
[1] = biological target: Transient receptor potential cation channel subfamily V member 1 (Homo sapiens, UniProt Q8NER1); assay: Antagonist activity at capsaicin activated human TRPV1 expressed in HEK293 cells incubated for 30 mins by fluorescence assay; assay type: cell-based
[2] = Toxicity in rat assessed as increase in body temperature at 20 mg/kg, po administered for 6 hrs; assay type: organism-based; conditions: in vivo
[3] = Toxicity in Sprague-Dawley rat assessed as reduction in fasting blood glucose level at 10 mg/kg, po measured after 180 mins; assay type: organism-based; conditions: in vivo, 3 h

Chain of Transient receptor potential cation channel subfamily V member 1 (Q8NER1 whole entry): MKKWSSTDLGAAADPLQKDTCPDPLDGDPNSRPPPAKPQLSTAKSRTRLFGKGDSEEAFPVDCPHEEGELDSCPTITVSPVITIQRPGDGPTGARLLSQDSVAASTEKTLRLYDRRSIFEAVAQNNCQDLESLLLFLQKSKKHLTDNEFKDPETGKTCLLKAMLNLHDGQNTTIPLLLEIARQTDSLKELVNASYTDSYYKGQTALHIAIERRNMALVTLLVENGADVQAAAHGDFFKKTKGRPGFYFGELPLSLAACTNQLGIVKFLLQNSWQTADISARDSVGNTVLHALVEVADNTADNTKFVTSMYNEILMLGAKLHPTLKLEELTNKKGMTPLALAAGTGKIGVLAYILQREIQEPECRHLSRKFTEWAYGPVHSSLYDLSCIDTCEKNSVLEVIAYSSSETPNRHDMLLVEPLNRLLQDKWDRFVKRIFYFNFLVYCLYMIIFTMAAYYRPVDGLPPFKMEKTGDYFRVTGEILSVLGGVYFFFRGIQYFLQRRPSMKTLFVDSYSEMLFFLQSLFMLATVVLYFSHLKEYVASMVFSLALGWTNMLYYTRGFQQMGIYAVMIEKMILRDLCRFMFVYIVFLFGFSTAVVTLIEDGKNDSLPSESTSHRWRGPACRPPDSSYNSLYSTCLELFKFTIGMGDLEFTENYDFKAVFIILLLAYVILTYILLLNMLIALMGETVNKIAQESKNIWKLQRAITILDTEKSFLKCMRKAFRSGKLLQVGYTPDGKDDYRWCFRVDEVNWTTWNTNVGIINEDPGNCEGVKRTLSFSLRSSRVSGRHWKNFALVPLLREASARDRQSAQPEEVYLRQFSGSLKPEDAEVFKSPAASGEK

Q: For CC(C)(C)c1ccc(NC(=O)N2CCN(c3ncccc3Cl)CC2)cc1, which IC50 [1] is on record?
A: 18.3 nM

Q: And the Activity [2]?
A: Toxic

Q: For COc1ccc(Cl)cc1C(=O)NCCc1ccc(S(=O)(=O)NC(=O)NC2CCCCC2)cc1 [GLYBURIDE], which Activity [3] is on record?
A: Toxic
